Assay results reported in paper PMC6988736 (Bioorganic & medicinal chemistry letters, 2017).
Like-named read-outs stand apart in the source and are kept apart here.

Assays:
hTRPV1 [1] = biological target: T1, hTRPV1 (Homo sapiens, UniProt Q8NER1); experiment: hTRPV1 antagonism, activation by heat; type: cell-based
hTRPV1 [2] = biological target: T1, hTRPV1; experiment: hTRPV1 antagonism, inhibition of activation by capsaicin; type: cell-based; details: for inhibition at 5 µM: CHO, read-out: inhibition% at 5 μM; for hTRPV1 antagonism toward capsaicin (in words): hTRPV1 in CHO cells, capsaicin 100 nM
hTRPV1 [3] = biological target: T1, hTRPV1; details: read-out: heat 45 °C, IC50; hTRPV1, activator heat 45 °C; previous lead; ref [9]; cited from earlier work

T1 sequence (Q8NER1 whole entry): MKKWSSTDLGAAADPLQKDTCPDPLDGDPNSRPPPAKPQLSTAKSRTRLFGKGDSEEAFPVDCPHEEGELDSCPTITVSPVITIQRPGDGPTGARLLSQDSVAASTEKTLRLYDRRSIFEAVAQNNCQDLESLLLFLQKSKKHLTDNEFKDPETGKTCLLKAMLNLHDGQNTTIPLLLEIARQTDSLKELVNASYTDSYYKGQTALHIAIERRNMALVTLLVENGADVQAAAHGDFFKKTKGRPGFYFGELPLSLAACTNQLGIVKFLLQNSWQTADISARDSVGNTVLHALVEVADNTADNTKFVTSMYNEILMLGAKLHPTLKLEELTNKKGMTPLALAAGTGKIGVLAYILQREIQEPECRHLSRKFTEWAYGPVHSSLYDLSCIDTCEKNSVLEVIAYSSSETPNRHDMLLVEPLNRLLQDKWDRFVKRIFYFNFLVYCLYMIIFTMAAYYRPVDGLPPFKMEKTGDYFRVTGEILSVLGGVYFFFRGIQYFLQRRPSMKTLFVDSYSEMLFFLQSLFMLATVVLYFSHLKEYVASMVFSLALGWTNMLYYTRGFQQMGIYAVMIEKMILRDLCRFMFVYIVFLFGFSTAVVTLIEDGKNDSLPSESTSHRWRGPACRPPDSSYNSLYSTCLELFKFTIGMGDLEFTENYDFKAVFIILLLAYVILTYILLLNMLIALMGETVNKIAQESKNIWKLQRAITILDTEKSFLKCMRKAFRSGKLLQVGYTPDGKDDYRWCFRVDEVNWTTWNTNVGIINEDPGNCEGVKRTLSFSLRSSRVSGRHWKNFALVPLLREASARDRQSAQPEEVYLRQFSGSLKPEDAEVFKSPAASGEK

inhibition at 5 µM (hTRPV1 [2]) [%] | hTRPV1 antagonism toward capsaicin (in words) (hTRPV1 [2]) | Structure (SMILES) | further results
 |  | C[C@H](C(=O)NCc1cc(C(C)(C)C)nn1-c1cccc(Cl)c1)c1ccc(NS(C)(=O)=O)c(F)c1 [Compound 13S] | IC50 (hTRPV1 [1]): > 5 µM
12 |  | Cc1ccc(C(C(=O)NCc2cc(C(C)(C)C)nn2-c2cccc(Cl)c2)c2ccc(NS(C)(=O)=O)c(F)c2)cc1 (stereo not shown) [Compound 18] | 
 |  | CC1CCN(c2nc(C(F)(F)F)ccc2CNC(=O)[C@@H](C)c2ccc(NS(C)(=O)=O)c(F)c2)CC1 [GRT12360] | IC50 (hTRPV1 [3]): 0.8 nM
 | dramatic reduction in activity | COc1ccc(-n2nc(C(C)(C)C)cc2CNC(=O)C(C)c2ccc(NS(C)(=O)=O)c(F)c2)cc1 (stereo not shown) [Compound 9] | 
 | high potency | CC(C(=O)NCc1cc(C(C)(C)C)nn1-c1ccc(F)c(Cl)c1)c1ccc(NS(C)(=O)=O)c(F)c1 (stereo not shown) [Compound 14] | 
 | dramatic reduction in activity | Cc1ccc(/C=C/c2ccc(-n3nc(C(C)(C)C)cc3CNC(=O)C(C)c3ccc(NS(C)(=O)=O)c(F)c3)cc2)cc1 (stereo not shown) [Compound 12] | 
 | dramatic reduction in activity | CC(C(=O)NCc1cc(C(C)(C)C)nn1-c1ccc(C(C)(C)C)cc1)c1ccc(NS(C)(=O)=O)c(F)c1 (stereo not shown) [Compound 11] | 
46 |  | CC(C)(C)c1cc(CNC(=O)C(c2ccc(NS(C)(=O)=O)c(F)c2)C2CCCCC2)n(-c2cccc(Cl)c2)n1 (stereo not shown) [Compound 17] | 
49 |  | CC(C)(C)c1cc(CNC(=O)C(c2cccc(F)c2)c2ccc(NS(C)(=O)=O)c(F)c2)n(-c2cccc(Cl)c2)n1 (stereo not shown) [Compound 19] | 
 | high potency | C[C@H](C(=O)NCc1cc(C(C)(C)C)nn1-c1ccc(F)c(Cl)c1)c1ccc(NS(C)(=O)=O)c(F)c1 [Compound 14S] | 
